Measurements as given in patent US9289496B2, “Lipid dipeptide and gel” (Nissan Chemical Industries, Ltd., priority 2008, dated 2016).
“Also recorded” adds a separate entry of the source. Residues, ends and D or L forms follow the SMILES beside them.

Experiments:
[1] = Evaluation of gelation of lipid peptides with phosphate buffer; type: physicochemical
Description: Each of the lipid peptides synthesized in Examples 3 to 10 and Example 14 was placed in a sample tube. Each of three phosphate buffers (PBS) (pH=2.6, 7.4, or 10) was added so that a solution would have a lipid peptide concentration of 0.25 or 0.5% (w/v) (conditions A to F). Then, the mixture was heated at 90° C. or more to dissolve the lipid peptide, and then allowed to cool.

[2] = Gel formation in glycerin, polyethylene glycol 400 and ethanol medium; type: physicochemical; conditions: 8 ml 70% glycerin in water
Description: (§1) Each of the 50.4 mg of N-palmitoyl-Gly-His.TFA salt prepared in Examples 1 to 3 was placed into a screw tube (Maruemu No. 7, manufactured by Maruemu Corp.). Into the screw tube, 1 ml of polyethylene glycol 400 (Wako Pure Chemical Industries, Ltd.), 1.5 ml of ethanol, and 8 ml of 70% glycerin (Junsei Chemical Co.) in water were added so as to have an N-palmitoyl-Gly-His TFA salt concentration of 0.5% (w/v). The mixture was heated with a dry bath incubator (manufactured by First Gene) (105° C., for 8 minutes), and then allowed to stand at room temperature to form a gel.
as §1, with “the 52.5” for “the 50.4”, “was added” for “was placed”, “tube, 0.5” for “tube, 1”, “Ltd.), 1” for “Ltd.), 1.5”, “an N-palmitoyl-Gly-His.TFA” for “an N-palmitoyl-Gly-His TFA”
(§2) Each of the 50.2 mg of palmitoyl-Gly-His.TFA salt prepared in Examples 1 to 3 was placed into a screw tube (Maruemu No. 7, manufactured by Maruemu Corp.) together with 104.7 mg of indomethacin and 220 mg of I-menthol. Into the screw tube, 0.5 ml of polyethylene glycol 400 (Wako Pure Chemical Industries, Ltd.), 1.5 ml of ethanol, 8 ml of 70% glycerin (Junsei Chemical Co., Ltd.) in water were added so as to have an N-palmitoyl-Gly-His.TFA salt concentration of 0.5% (w/v). […] The texture of the gel was smooth and cool.

[3] = Evaluation of gelation of N-palmitoyl-Gly-His.TFA salt with various solutions; type: physicochemical
Description: Each N-palmitoyl-Gly-His trifluoroacetate synthesized in Examples 1 to 3 was placed in a screw tube (Maruemu No. 1, manufactured by Maruemu Corp.). Each of various solutions shown in Table 3 was added so as to have an N-palmitoyl-Gly-His.TFA salt (also called Pal-GH (TFA)) concentration of 0.5 or 1% (w/v). The mixture was heated at 100° C. with a constant temperature heat block (manufactured by Nippon Genetics Co., Ltd.), and then allowed at room temperature.

[4] = Gel sheet formation and stability of gel on water immersion; type: physicochemical; conditions: 72 hours
Description: Into a screw tube (Maruemu No. 3, manufactured by Maruemu Corp.), 3 mg of N-palmitoyl-Gly-His (TFA) prepared in Example 1 was placed, and 0.6 ml of Japanese Pharmacopoeia purified water (Kyoei Pharmaceutical Industries, Ltd.) was added into the screw tube so as to have a concentration of 0.5% (w/v). The whole was heated at 105° C. for 5 minutes, and then allowed to stand at room temperature to prepare a gel of 0.5% N-palmitoyl-Gly-His (TFA).
To the gel, 2 ml of Japanese Pharmacopoeia purified water (Kyoei Pharmaceutical Industries, Ltd.) was further added and sheet formation was observed from a wide view for 72 hours.
Into a screw tube (Maruemu No. 3, manufactured by Maruemu Corp.), 9.1 mg of N-palmitoyl-Gly-His.TFA salt prepared in Example 1 was placed, and 0.91 ml of Japanese Pharmacopoeia purified water (Kyoei Pharmaceutical Industries, Ltd.) and 0.91 ml of glycerin (Junsei Chemical Co., Ltd.) were added into the screw tube so as to have a concentration of 0.5% (w/v). The whole was heated at 105° C. for 5 minutes, and then allowed to stand at room temperature to prepare a gel of 0.5% N-palmitoyl-Gly-His.TFA salt in a glycerin solution.
Into the gel, 2 ml of Japanese Pharmacopoeia purified water (Kyoei Pharmaceutical Industries, Ltd.) was further added and sheet formation was observed from a wide view for 72 hours.
Into a screw tube (Maruemu No. 3, manufactured by Maruemu Corp.), 4.6 mg of N-palmitoyl-Gly-His.TFA salt prepared in Example 1 was placed, and 0.46 ml of glycerin was added into the screw tube so as to have a concentration of 1% (w/v). The whole was heated at 105° C. for 5 minutes, and then allowed to stand at room temperature to prepare a gel of 1% N-palmitoyl-Gly-His.TFA salt in glycerin.
as §1
Into the gel, 20 ml of Japanese Pharmacopoeia purified water (Kyoei Pharmaceutical Industries, Ltd.) was further added and whether sheet formation occurred or not was observed from a wide view for 72 hours.
as §1, with “the 52.5” for “the 50.4”, “was added” for “was placed”, “tube, 0.5” for “tube, 1”, “Ltd.), 1” for “Ltd.), 1.5”, “an N-palmitoyl-Gly-His.TFA” for “an N-palmitoyl-Gly-His TFA”
as §2
After ascertainment of the gel formation, the gel was allowed to stand at room temperature for 45 days. Then, 20 ml of Japanese Pharmacopoeia purified water (Kyoei Pharmaceutical Industries, Ltd.) was added and sheet formation was observed from a wide view for 72 hours. […]

[5] = Evaluation of gelation of lipid peptides with pure water; type: physicochemical
Description: Each of the lipid peptides synthesized in Examples 1, 6, 7, 8, and 10 was placed in a sample tube. Pure water (without metals and ions) was added so that a solution would have a lipid peptide concentration of 0.25 or 0.5% (w/v) (w means mass (g), and v means volume (mL)). The mixture was heated at 90° C. or more to dissolve the lipid peptide, and then allowed to cool.

[6] = background art; cited from earlier work
[7] = acidic region (pH=2.6), concentration 0.25%
[8] = acidic region (pH=2.6), concentration 0.5%
[9] = condition A: phosphate buffer pH = 2.6, 0.5% (w/v)
[10] = condition B: phosphate buffer pH = 2.6, 0.25% (w/v)
[11] = condition C: phosphate buffer pH-7.4, 0.5% (w/v)
[12] = condition D: phosphate buffer pH-7.4, 0.25% (w/v)
[13] = condition E: phosphate buffer pH = 10, 0.5% (w/v)

Compound | Gel formation [1, 7] | Gel formation [1, 8] | Gelation [1, 9] | Gelation [1, 10] | Gelation [1, 11] | Gelation [1, 12] | Gelation [1, 13] | Gelation ([5]; lipid peptide 0.25% (w/v)) | Gelation ([5]; lipid peptide 0.50% (w/v)) | other results
CCCCCCCCCCCCCCCC(=O)NCC(=O)N[C@@H](Cc1c[nH]cn1)C(=O)O.O=C(O)C(F)(F)F [Example 1, N-palmitoyl-Gly-His.TFA salt] (HELM PEPTIDE1{[CCCCCCCCCCCCCCCC(=O)[*:2]].G.H}$$$$V2.0) | formed gels | formed gels | ◯ | ◯ | ◯ | ◯ | ◯ | ◯ | ◯ | Gel formation ([2]; 0.5% (w/v) with 104.7 mg indomethacin and 220 mg l-menthol, 0.5 ml polyethylene glycol 400, 1.5 ml ethanol): pale yellow gel; Gel formation ([2]; 0.5% (w/v), 0.5 ml polyethylene glycol 400, 1 ml ethanol): form a gel; Gel formation ([2]; 0.5% (w/v), 1 ml polyethylene glycol 400, 1.5 ml ethanol): form a gel; Gel state ([3]; 50% 1,3-butanediol aqueous solution, 0.5% (w/v)): White gel; Gel state ([3]; 50% glycerin aqueous solution, 0.5% (w/v)): White gel; Gel state ([3]; 50% liquid paraffin aqueous solution, 0.5% (w/v)): White gel; Gel state ([3]; 50% polyethylene glycol 400 aqueous solution, 0.5% (w/v)): White gel; Gel state ([3]; 50% propylene glycol aqueous solution, 0.5% (w/v)): White gel; Gel state ([3]; 70% glycerin aqueous solution, 0.5% (w/v)): Transparent gel; Gel state ([3]; Glycerin, 1.0% (w/v)): Transparent gel; Gel state ([3]; Polyethylene glycol 400, 1.0% (w/v)): Transparent gel; Gel behaviour on immersion in purified water, sheet formation ([4]; 0.5% (w/v) gel in 0.5 ml polyethylene glycol 400, 1 ml ethanol, 8 ml 70% glycerin, 20 ml water added): not dissolved during water immersion and the formation of a sheet-shaped gel was observed; Gel behaviour on immersion in purified water, sheet formation ([4]; 0.5% (w/v) gel in 1 ml polyethylene glycol 400, 1.5 ml ethanol, 8 ml 70% glycerin, 20 ml water added): not dissolved during water immersion and the formation of a sheet-shaped gel was observed; Gel behaviour on immersion in purified water, sheet formation ([4]; 0.5% (w/v) gel in glycerin solution (0.91 ml water + 0.91 ml glycerin), 2 ml water added): not dissolved during water immersion and the formation of a sheet-shaped gel was observed; Gel behaviour on immersion in purified water, sheet formation ([4]; 0.5% (w/v) gel in purified water, 2 ml water added): not dissolved during water immersion and the formation of a sheet-shaped gel was observed; also recorded: did not dissolve during water immersion and the formation of a sheet-shaped gel was observed; Gel behaviour on immersion in purified water, sheet formation ([4]; 0.5% (w/v) gel including indomethacin and l-menthol, after 45 days at room temperature, 20 ml water added): not dissolved during water immersion and the formation of a sheet-shaped gel was observed; Gel behaviour on immersion in purified water, sheet formation ([4]; 1% (w/v) gel in glycerin, 2 ml water added): not dissolved during water immersion and the formation of a sheet-shaped gel was observed
CCCCCCCCCCCC(=O)NCC(=O)N[C@@H](Cc1c[nH]cn1)C(=O)O.O=C(O)C(F)(F)F [Example 6, N-Lauroyl-Gly-His.TFA Salt] (HELM PEPTIDE1{[CCCCCCCCCCCC(=O)[*:2]].G.H}$$$$V2.0) | formed gels | formed gels | ◯ | ◯ | ◯ | ◯ | ◯ | ◯ | ◯ | Gel formation ([1]; basic region (pH=10), concentration 0.25%): formed a gel; Gelation ([1]; condition F: phosphate buffer pH = 10, 0.25% (w/v)): ◯
CCCCCCCCCCCCCCCCCCCCCC(=O)NCC(=O)N[C@@H](Cc1c[nH]cn1)C(=O)O.O=C(O)C(F)(F)F [Example 7, N-Behenoyl-Gly-His.TFA Salt] | – | formed gels | ◯ | – | ◯ | ◯ | ◯ | ◯ | ◯ | –
CCCCCCCCCCCCCC(=O)NCC(=O)N[C@@H](Cc1c[nH]cn1)C(=O)O.O=C(O)C(F)(F)F [Example 8, N-Myristoyl-Gly-His.TFA Salt] (HELM PEPTIDE1{[CCCCCCCCCCCCCC(=O)[*:2]].G.H}$$$$V2.0) | formed gels | formed gels | ◯ | ◯ | ◯ | ◯ | ◯ | ◯ | ◯ | –
CCCCCCCCCCCCCCCC(=O)N[C@@H](C)C(=O)N[C@@H](Cc1c[nH]cn1)C(=O)O.O=C(O)C(F)(F)F [Example 10, N-Palmitoyl-Ala-His.TFA salt] (HELM PEPTIDE1{[CCCCCCCCCCCCCCCC(=O)[*:2]].A.H}$$$$V2.0) | formed gels | formed gels | ◯ | ◯ | ◯ | ◯ | ◯ | ◯ | ◯ | –
CCCCCCCCCCCCCCCC(=O)N[C@H](C(=O)N[C@@H](Cc1c[nH]cn1)C(=O)O)C(C)C.O=C(O)C(F)(F)F [Example 11, N-Palmitoyl-Val-His.TFA Salt] (HELM PEPTIDE1{[CCCCCCCCCCCCCCCC(=O)[*:2]].V.H}$$$$V2.0) | – | – | – | – | ◯ | ◯ | ◯ | – | – | –
CCCCCCCCCCCCCCCC(=O)N[C@@H](Cc1c[nH]cn1)C(=O)NCC(=O)O.O=C(O)C(F)(F)F [Example 14, N-Palmitoyl-His-Gly.TFA Salt] (HELM PEPTIDE1{[CCCCCCCCCCCCCCCC(=O)[*:2]].H.G}$$$$V2.0) | – | – | – | – | ◯ | ◯ | ◯ | – | – | –
CCCCCCCCCCCCCCCC(=O)NCC(=O)NCC(=O)N[C@@H](Cc1c[nH]cn1)C(=O)O [palmitoyl-Gly-Gly-His] (HELM PEPTIDE1{[CCCCCCCCCCCCCCCC(=O)[*:2]].G.G.H}$$$$V2.0) | – | – | – | – | – | – | – | – | – | gelation properties [6]: has gelation properties
